Measurements reported in article doi:10.1101/2024.08.19.608619, “Discovery of potent SARS-CoV-2 nsp3 macrodomain inhibitors uncovers lack of translation to cellular antiviral response” (bioRxiv, 2024).
Converted amounts (≈) assume the structure as drawn. “And” between values parts separate entries of the source, which are not always exact repeats. Equal values may be shown once.

Columns and labels:
in vitro = details: human, hela-ace2 cells, 50.0
[1] = In vitro kinetic solubility; details: In vitro kinetic solubility, ph 7.4
LogD = details: pH 7.4; In vitro LogD
[2] = Permeability Papp (AB) MDR1/MDCKII; details: for papp_b_to_a_mean / efflux_ratio / perc_recovery_a_to_b_mean / perc_recovery_b_to_a_mean / papp_a_to_b_mean: In vitro MDR1-MDCKII permeability; for perc_recovery_a_to_b_mean / perc_recovery_a_to_b_inhibitor_mean: recovery A to B; for perc_recovery_b_to_a_mean / perc_recovery_b_to_a_inhibitor_mean: recovery B to A; for papp_a_to_b_mean: A to B
[3] = Hepatic microsomal stability, MLM; assay type: in vitro ADME; details: In vitro mouse liver microsomal stability; for perc_remaining_no_cofactor: no cofactor
[4] = tested on: SARS-CoV-2, isolate USA-WA1/2020; test: microbe, parasite or virus in culture; assay type: cell-based; details: HeLa-ACE2 SARS-CoV-2 antiviral effect without P-gp inhibitor; for perc_max_measured: maximum measured response of dose series; for perc_min_measured: minimum measured response of dose series; for EC50: read-out: ec50; for EC90: read-out: ec90
HeLa-ACE2 cells = details: HeLa-ACE2 cytotoxicity; for perc_max_measured: highest measured response of the dose series; for perc_min_measured: lowest measured response of the dose series
[5] = Hepatic microsomal stability, HLM; assay type: in vitro ADME, human; details: In vitro human liver microsomal stability; for perc_remaining_no_cofactor: no cofactor
[6] = MDR1-MDCKII, with inhibitor Cyclosporin A
[7] = MDR1-MDCKII, with inhibitor Verapamil

| SMILES | CC50 at 24 h (in vitro) [µM] | solubility_mean [1] [µM] | logd (LogD) | papp_b_to_a_mean ([2]; B to A, no inhibitor) | clint [3] [µL/min/mg] | perc_remaining [3] [%] | t_half [3] [min] | perc_remaining_no_cofactor [3] [%] | perc_max_measured [4] [%] | perc_min_measured [4] [%] | EC50 [4] [µM] | EC90 [4] [µM] | CC50 (HeLa-ACE2 cells) [µM] | cc10 (HeLa-ACE2 cells) [µM] | perc_max_measured (HeLa-ACE2 cells) [%] | perc_min_measured (HeLa-ACE2 cells) [%] | clint [5] [µL/min/mg] | perc_remaining [5] [%] | t_half [5] [min] | perc_remaining_no_cofactor [5] [%] | other results |
| --- | --- | --- | --- | --- | --- | --- | --- | --- | --- | --- | --- | --- | --- | --- | --- | --- | --- | --- | --- | --- | --- |
| CCNC(=O)c1cc2c(N[C@@H](c3ccc4c(c3)S(=O)(=O)CCO4)C(C)C)ncnc2[nH]1 (racemic) [ASAP-0012317] | > 20 | 328 (≈ 145 µg/mL) | 2.9 | 1.5 ×10⁻⁶ cm/s and 1.4 ×10⁻⁶ cm/s | 26.0 | 66.0 | 65.5 | 99.0 | 111.753 | 79.377 | > 20 | > 20 | > 20 | > 20.0 | 105.961 | 74.573 | 64.0 | 33.0 | 26.2 | 95.0 | efflux_ratio ([2]; no inhibitor): 20.3 and 15.3; perc_recovery_a_to_b_mean ([2]; no inhibitor): 71.9% and 74.3% and 65.2%; perc_recovery_b_to_a_mean ([2]; no inhibitor): 68.3% and 88.2%; papp_b_to_a_inhibitor_mean ([2]; MDR1-MDCKII, B to A, with inhibitor Verapamil): 1.5 ×10⁻⁶ cm/s; perc_recovery_a_to_b_inhibitor_mean [2, 6]: 82.7%; perc_recovery_a_to_b_inhibitor_mean [2, 7]: 92.9%; perc_recovery_b_to_a_inhibitor_mean [2, 6]: 89.0%; perc_recovery_b_to_a_inhibitor_mean [2, 7]: 90.3% |
| CC(C)[C@@H](Nc1ncnc2[nH]ccc12)c1ccc2c(c1)S(=O)(=O)CCC2 (single isomer, unassigned) [ASAP-0008676] | > 20 | 386 (≈ 143 µg/mL) | 2.5 | 7.1 ×10⁻⁶ cm/s and 4.9 ×10⁻⁶ cm/s | 55.0 | 41.0 | 30.4 | 117.0 | 117.108 | 66.698 | > 20 | > 20 | > 20 | > 20.0 | 101.14 | 87.391 | 21.0 | 69.0 | 78.6 | 99.0 | efflux_ratio ([2]; no inhibitor): 47.7 and 54.4; perc_recovery_a_to_b_mean ([2]; no inhibitor): 75.4% and 74.2% and 91.3%; perc_recovery_b_to_a_mean ([2]; no inhibitor): 80.0% and 74.5%; perc_recovery_a_to_b_inhibitor_mean [2, 6]: 72.2%; perc_recovery_a_to_b_inhibitor_mean [2, 7]: 82.4%; perc_recovery_b_to_a_inhibitor_mean [2, 6]: 63.3%; perc_recovery_b_to_a_inhibitor_mean [2, 7]: 89.1% |
| CC(C)[C@H](Nc1ncnc2[nH]c(-c3cnn(C)c3C#N)cc12)c1ccc2c(c1)S(=O)(=O)CCC2 (single isomer, unassigned) [ASAP-0011144] | > 20 | 22 (≈ 10.5 µg/mL) | 3.3 | 6.0 ×10⁻⁶ cm/s and 7.2 ×10⁻⁶ cm/s | 311.0 | 1.0 | 5.4 | 90.0 | 129.006 | 5.734 | 6.21 | 7.19 | > 20 | > 20.0 | 100.779 | 87.504 | 935.0 | 0.0 | 1.8 | 101.0 | papp_a_to_b_mean ([2]; mean): 4.33 ×10⁻⁶ cm/s; papp_a_to_b_mean ([2]; no inhibitor): 0.109 ×10⁻⁶ cm/s and 0.101 ×10⁻⁶ cm/s; efflux_ratio ([2]; no inhibitor): 54.9 and 71.8; perc_recovery_a_to_b_mean ([2]; mean): 71.4%; perc_recovery_a_to_b_mean ([2]; no inhibitor): 95.4% and 83.3%; perc_recovery_b_to_a_mean ([2]; no inhibitor): 82.4% and 102.0%; perc_recovery_a_to_b_inhibitor_mean [2, 6]: 78.3%; perc_recovery_a_to_b_inhibitor_mean [2, 7]: 84.6%; perc_recovery_b_to_a_inhibitor_mean [2, 6]: 76.3%; perc_recovery_b_to_a_inhibitor_mean [2, 7]: 95.9% |
| CNCc1cc(-c2cc3c(N[C@H](c4ccc5c(c4)S(=O)(=O)CCC5)C(C)C)ncnc3[nH]2)co1 (single isomer, unassigned) [ASAP-0011169] | > 20 | 358 (≈ 172 µg/mL) | 2.1 |  | 40.0 | 51.0 | 41.8 | 96.0 | 94.818 | 27.713 | 11.1 | > 20 | > 20 | > 20.0 | 96.832 | 86.562 | 67.0 | 33.0 | 25.1 | 98.0 | papp_a_to_b_mean ([2]; mean): 0.483 ×10⁻⁶ cm/s; perc_recovery_a_to_b_mean ([2]; mean): 63.8% |
| CC(C)[C@H](Nc1ncnc2[nH]c(-c3cnn(C)c3C#N)cc12)c1ccc2c(n1)NC(=O)CO2 (single isomer, unassigned) [ASAP-0011177] | > 20 | 28 (≈ 12.4 µg/mL) | 3.7 | 6.5 ×10⁻⁶ cm/s | 131.0 | 12.0 | 12.8 | 85.0 | 70.604 | 3.388 | 0.858 | > 20 | > 20 | > 20.0 | 109.886 | 55.576 | 137.0 | 10.0 | 12.2 | 92.0 | papp_a_to_b_mean ([2]; mean): 9.35 ×10⁻⁶ cm/s; papp_a_to_b_mean ([2]; no inhibitor): 0.0964 ×10⁻⁶ cm/s; efflux_ratio ([2]; no inhibitor): 67.2; perc_recovery_a_to_b_mean ([2]; mean): 80.2%; perc_recovery_a_to_b_mean ([2]; no inhibitor): 69.4%; perc_recovery_b_to_a_mean ([2]; no inhibitor): 79.8%; perc_recovery_a_to_b_inhibitor_mean [2, 7]: 78.2%; perc_recovery_b_to_a_inhibitor_mean [2, 7]: 81.1% |
| CC(C)[C@@H](Nc1ncnc2[nH]c(-c3cnn(C)c3C#N)cc12)c1ccc2c(n1)NC(=O)CO2 (single isomer, unassigned) [ASAP-0011180] | > 20 | 28 (≈ 12.4 µg/mL) | 3.7 |  | 189.0 | 5.0 | 8.8 | 92.0 | 122.922 | 8.802 | 2.46 | 5.57 | > 20 | > 20.0 | 104.887 | 81.763 | 51.0 | 43.0 | 32.6 | 98.0 | papp_a_to_b_mean ([2]; mean): 9.64 ×10⁻⁶ cm/s; perc_recovery_a_to_b_mean ([2]; mean): 84.8% |
